Measurements as given in patent US6303591A, “21-hydroxy-6,19-oxidoprogesterone (21OH-6OP) and its use as medicament for treating excess of glucocorticoids” (Applied Research Systems ARS Holding NV, priority 1997, dated 2001).
“Also recorded” adds a separate entry of the source.

Tests used:
[1] = test system: Na^+ retention (sodium-excretion rate); experiment: Na^+ -retaining activity, adrenalectomized rats; format: in vivo, rat
Description: (§1) FIG. 3: Biological Properties of 21OH-6OP: A) Glycogen storage in vivo: 100 μg steroid/100 g body weight of male rats were injected as indicated in Example 1. Liver glycogen was purified and quantified with Krisman's reagent (17). Controls were injected with vehicle. Results are expressed as means±SEM (n=6). (*): different from controls P<0.02. B) TAT induction in vitro: rat hepatocytes were incubated for 5 h in HAM-F12 medium in the presence of 100 nM steroid and TAT activity was measured. Results are expressed as percentage of enzyme activity (means±SEM, n=4) over controls incubated in the presence of vehicle. (*) different from controls P<0.01. C) Sodium-retaining activity: adrenalectomized rats were treated with the indicated dose of steroids. Results are expressed as the ratio of sodium-excretion rates of steroid-injected animals to the excretion rates of rats injected with vehicle.
(§2) Bioassay : Liver glycogen deposition was measured on adrenalectoniized male Sprague-Dawley rats (180-220 g) as follows: steroids were dissolved in ethanol/propylene glycol/0.9% NaCl solution (3:3:34) and 100 μg steroid/l00 g body weight were injected i.m. the previous night. On the morning of the experiment this dose was reinjected intraperitoneally. Three hours later the rats were killed by cervical dislocation and livers were immediately removed. Glycogen purification and quantification were carried out according to Krisman's method (17). Na^+ -retaining properties were measured as described (5). Tyrosine aminotransferase (TAT) was induced in rat hepatocytes isolated by the procedure of Fry et al (18). TAT activity was determined according to Granner and Tomkins (19).

[2] = test system: Na^+ retention (sodium-excretion rate); conditions: earlier study, ref (5); cited from earlier work
liver glycogen = liver glycogen deposition in vivo, adrenalectomized rats; design: species or system rat; conditions: 100 μg steroid/100 g body weight; for liver glycogen deposits: compared to ADX controls
Description: as §1, §2

[3] = test system: TAT induction in hepatocytes (GR); experiment: antagonism of TAT induction by DXM or B in hepatocytes; format: cell-based, rat; conditions: 2.5 μM steroid
Description: (§3) Hatched bars represent incubations performed in the presence of vehicle instead of agonist.
as §2
(§4) The basal TAT activity in hepatocytes, denominated control in the figure, was measured by adding vehicle (final concentration: 0.2% ethanol) to the culture. […] 2.5 μM 21OH-6OP inhibits 80% of TAT induction when concubated with B or DXM.

[4] = test system: tyrosine aminotransferase (TAT) induction in rat hepatocytes; experiment: TAT induction in rat hepatocytes (agonism); format: cell-based; conditions: for increase of TAT activity: 100 nM steroid, rat hepatocytes
Description: as §1, §3, §2, §4

type II sites (GR) = molecular target: T1, type II sites (GR) (Rattus norvegicus, UniProt P06536); experiment: tracer binding (Scatchard) to kidney type II sites (GR); conditions: no competitor
T1 construct: type II receptors in kidney cytosols; from tissue; host or cells: kidney cytosol, adrenalectomized male Sprague-Dawley rats
T1 sequence (P06536 1-795): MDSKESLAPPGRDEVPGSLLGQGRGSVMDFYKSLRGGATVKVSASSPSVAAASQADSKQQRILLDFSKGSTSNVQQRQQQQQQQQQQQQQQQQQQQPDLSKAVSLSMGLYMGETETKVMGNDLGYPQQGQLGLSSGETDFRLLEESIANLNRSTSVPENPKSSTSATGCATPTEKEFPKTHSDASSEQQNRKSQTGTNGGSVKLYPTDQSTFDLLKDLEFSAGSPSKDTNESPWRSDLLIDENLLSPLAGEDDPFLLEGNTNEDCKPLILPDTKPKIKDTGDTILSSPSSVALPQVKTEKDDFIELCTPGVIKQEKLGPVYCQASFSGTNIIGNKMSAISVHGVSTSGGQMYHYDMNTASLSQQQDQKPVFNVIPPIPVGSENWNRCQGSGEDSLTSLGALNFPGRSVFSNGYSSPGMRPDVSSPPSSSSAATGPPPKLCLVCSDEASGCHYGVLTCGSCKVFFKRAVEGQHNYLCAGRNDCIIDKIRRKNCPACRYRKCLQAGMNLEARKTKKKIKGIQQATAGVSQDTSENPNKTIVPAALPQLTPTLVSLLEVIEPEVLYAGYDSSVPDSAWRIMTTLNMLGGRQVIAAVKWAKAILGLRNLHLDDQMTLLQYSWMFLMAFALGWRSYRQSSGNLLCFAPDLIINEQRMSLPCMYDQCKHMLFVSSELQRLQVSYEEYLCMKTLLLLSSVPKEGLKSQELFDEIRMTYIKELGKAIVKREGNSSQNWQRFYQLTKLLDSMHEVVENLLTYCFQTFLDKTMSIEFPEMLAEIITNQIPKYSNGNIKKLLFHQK
Description: (§5) Binding Assay: Adrenalectomized male Sprague-Dawley rats were bled to death by heart puncture. Cold 0.9% NaCI was injected profusely through the aorta until organs were completely blanched. Thymuses were used as a source of GR and kidneys as a source of MR. Homogenization and incubation conditions were performed as previously described, (14) and (15), respectively. Briefly, homogenates performed in cold TEGM buffer at pH 7.4 (0.1 M Tris-HCl, 10 mM EDTA, 10 mM α-mercaptoethanol, 20 mM Na2 MoO4, 25% glycerol, 0.1 mM PMSF, 2.0 TIU/ml aprotinin and 1 mg% Leupeptin) were centrifuged at 37,000 rev. for 30 min at 0° C. Supernatants from this centrifugation are referred to as "cytosol". […] (^3 H)-P4 binding to uterus PR was assayed on immature female rats according to Jordan et al (16).
(§6) To study the binding of ALDO to kidney- MR without the competitive influence of the relatively more abundant GR, GR was removed with the specific ligand RU28362 (7).
The calculated Kd for type I sites in different conditions ranges between 0.4 and 1 nM (Table 1) which is at least eighty times higher than the affinity for type II sites.

[5] = molecular target: T2, type I receptors (kidney MR) (Rattus norvegicus, UniProt P22199); experiment: tracer binding (Scatchard) to kidney type I sites (MR); conditions: for nH, type I: Hill coefficient; for Q, type I: apparent number of sites
T2 construct: kidneys as a source of MR; from tissue; host or cells: kidney cytosol, adrenalectomized male Sprague-Dawley rats
T2 sequence (P22199 1-981): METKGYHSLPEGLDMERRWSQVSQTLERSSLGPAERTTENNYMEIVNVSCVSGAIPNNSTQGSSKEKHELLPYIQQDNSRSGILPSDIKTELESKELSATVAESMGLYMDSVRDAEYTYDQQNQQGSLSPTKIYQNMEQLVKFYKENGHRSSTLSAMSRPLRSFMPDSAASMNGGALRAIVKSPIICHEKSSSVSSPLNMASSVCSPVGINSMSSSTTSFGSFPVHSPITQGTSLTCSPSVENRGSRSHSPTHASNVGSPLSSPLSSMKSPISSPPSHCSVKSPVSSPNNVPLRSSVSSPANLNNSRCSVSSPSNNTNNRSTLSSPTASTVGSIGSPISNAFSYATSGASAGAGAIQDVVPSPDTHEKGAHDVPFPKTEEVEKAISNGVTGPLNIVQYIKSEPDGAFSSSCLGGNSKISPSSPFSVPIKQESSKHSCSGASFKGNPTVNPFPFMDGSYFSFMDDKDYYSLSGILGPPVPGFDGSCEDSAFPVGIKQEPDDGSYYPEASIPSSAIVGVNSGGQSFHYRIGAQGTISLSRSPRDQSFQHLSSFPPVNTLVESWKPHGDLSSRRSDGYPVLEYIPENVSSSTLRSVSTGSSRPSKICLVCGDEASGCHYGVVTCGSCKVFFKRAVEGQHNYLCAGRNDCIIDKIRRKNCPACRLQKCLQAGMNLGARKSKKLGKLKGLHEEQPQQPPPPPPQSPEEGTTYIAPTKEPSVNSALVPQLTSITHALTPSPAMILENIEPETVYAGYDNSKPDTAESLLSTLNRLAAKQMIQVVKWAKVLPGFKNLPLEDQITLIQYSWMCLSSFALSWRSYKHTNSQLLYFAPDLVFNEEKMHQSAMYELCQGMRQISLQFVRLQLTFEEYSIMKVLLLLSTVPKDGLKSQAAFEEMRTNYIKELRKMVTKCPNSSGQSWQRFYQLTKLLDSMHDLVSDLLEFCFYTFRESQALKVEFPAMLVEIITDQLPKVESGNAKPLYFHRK
Description: as §5, with “(16). […]” for “(16).”
as §6

hippocampus type I MR = conditions: ref (9); cited from earlier work
[6] = test system: inoperable cases of nonpituitary Cushing's syndrome; conditions: cited from earlier work
PR = conditions: background; cited from earlier work
[7] = in the presence of 2.5 μM 21OH-6OP
[8] = in the presence of 10 μM RU-28362

CC(=O)[C@H]1CC[C@H]2[C@@H]3C[C@H]4OC[C@@]5(CCC(=O)C=C45)[C@H]3CC[C@]12C [6OP, 6,19-oxidoprogesterone]
Na^+ -retaining (MC) properties (in words) ([1]; FIG. 3-C): weak Na^+ -retainer; also recorded: then loosing activity at still higher doses | maximum Na^+ retention ([1]; maximum of parabolic dose-response, at high doses): 50% | Na^+ retaining properties [2]: exhibited practically no Na^+ retaining properties | GC response: liver glycogen (liver glycogen; FIG. 3-A): neither 6OP nor 21OH-6OP evoke these responses | antagonism of TAT induction by B (in words) ([3]; 100 nM B): significantly different (P<0.01) from the basal activity | antagonism of TAT induction by DXM (in words) ([3]; 100 nM DXM): significantly different (P<0.01) from the basal activity | TAT induction (in words) ([4]; FIGS. 3-B and 4 (hatched bars), no agonist added): neither 6OP nor 21OH-6OP evoke these responses; also recorded: Neither 6OP nor 21OH-6OP facilitate TAT induction | GC properties ([4]; preliminary studies, test not specified): lack of GC properties

C[C@]12CCC(=O)C=C1CC[C@@H]1[C@@H]2[C@@H](O)C[C@]2(C=O)[C@@H](C(=O)CO)CC[C@@H]12 [(^3 H)-ALDO, Aldosterone]
nH, type II (type II sites (GR); Hill coefficient): 0.86 | Q, type II (type II sites (GR); apparent number of sites): 2900 fmol/mg | Kd (type II sites (GR)): 0.0644 µM | nH, type I [5, 7]: 0.88 | nH, type I [5, 8]: 0.90 | nH, type I ([5]; no competitor): 0.97 | Q, type I [5, 7]: 110 fmol/mg | Q, type I [5, 8]: 124.4 fmol/mg | Q, type I ([5]; no competitor): 104 fmol/mg

COC(=O)[C@@H]1CC2=CC(=O)CC[C@]2(C)[C@H]2CC[C@@]3(C)[C@@H]([C@@H]4C[C@@H]4[C@@]34CCC(=O)O4)[C@H]12 [(^3 H)-ZK91587]
binding to hippocampus type I MR (hippocampus type I MR): hippocampus type I MR (9) | nH, type I ([5]; no competitor): 0.91 | Q, type I ([5]; no competitor): 98 fmol/mg | Kd ([5]; no competitor): 0.00042 µM

C[C@]12C[C@H](O)[C@H]3[C@@H](CCC4=CC(=O)CC[C@@]43C)[C@@H]1CC[C@@H]2C(=O)CO [B, corticosterone]
liver glycogen deposits (liver glycogen): between three and four times more | increase of TAT activity [4]: between five and six times

C[C@@H]1C[C@H]2[C@@H]3CCC4=CC(=O)C=C[C@]4(C)[C@@]3(F)[C@@H](O)C[C@]2(C)[C@@]1(O)C(=O)CO [DXM, dexamethasone]
liver glycogen deposits (liver glycogen): between three and four times more | increase of TAT activity [4]: between five and six times

CC#C[C@]1(O)CC[C@H]2[C@@H]3C=C(C)C4=CC(=O)C=C[C@]4(C)[C@H]3[C@@H](O)C[C@@]21C [RU28862]
reduction of (^3 H)-ALDO Scatchard plot to type I sites ([5]; 1.0 μM RU28862, selective MR ligand ZK91587): reduces the plot to a single line corresponding to type I sites

CC#C[C@]1(O)CC[C@H]2[C@@H]3CCC4=CC(=O)CCC4=C3[C@@H](c3ccc(N(C)C)cc3)C[C@@]21C [RU38486]
dose needed for effectiveness [6]: 20-800 mg per day | antiprogestin activity (PR): strong antiprogestin activity
